Values joined by “and” are separate entries in the source; they are usually repeats but may differ in a detail not shown here. Equal values may be shown once.
System: SW1 tumors
Assay: cDNA microarray gene expression profiling of SW1 tumors
Type: in vivo, mouse
Conditions: down regulated, hybridizations #1-#4, listed as ATFp2
Excerpt: FIGS. 8A and 8B show gene profiling analysis of SW1 tumors expressing the ATF2^51-100 peptide. Tumors generated, in the absence or presence of a peptide, were used as source of mRNA for array analysis of 10K mouse genes (see Example 5). […] In all cases, the data represent analyses carried out 4 times from 4 different pools of tumors.
To elucidate the molecular pathways affected by expression of the ATF2^51-100 peptide, we used cDNA microarray analysis to compare the RNA expression profiles of SW1 tumors that express this peptide or a control vector (FIG. 8A). The 10k mouse Gem 2 gene set (Incyte Genomics Inc, Palo Alto, Calif.) was printed at the NCI on poly-L-lysine-coated glass using a Biorobotics TASII arrayer (Cambridge, England). All protocols for manufacturing and hybridization of microarrays are posted on the NCI web site (see, e.g., nciarray.nci.nih.gov). Approximately 20 μg of total RNA were used in the reverse transcription reaction to directly label the probe with Cy-5 dUTP or Cy-3 dUTP (Amersham). Hybridizations were performed at 65° C. for 12-18 h in a hybridization volume of 35 μL. The hybridized arrays were scanned using an Axon GenePix 4000 scanner (Union City, Calif.) and fluorescence data were collected using the GenePix software.
mRNA was prepared from a pool of 4 tumors obtained from two different experiments. In both cases, tumors were excised 2 weeks after subcutaneous injection of cells. Because the fluorescently labeled Cy dyes may incorporate into the reverse-transcribed cDNA with different efficiencies, RNA isolated from both cell types was always labeled with both combinations of Cy dyes. […] SW1 vector control cells were labeled with Cy-3 (F532) and the SW1-ATF 51-100 cells were labeled with Cy-5 (F635).

## ATF2^51-100: amino-terminal peptide of ATF2, amino acid residue 51 to 100 (about a 50 amino acid peptide), expressed in tumor cells (MTLKFGPARNDSVIVADQTPTPTRFLKNCEEVGLFNELASPFENEFKKAS; UniProt P15336 51-100, looked up, fragment)
IMAGE: 334351
  Ratio ATFp2-Cy5 vs parental control-Cy3: Mt2 (metallothionein 2): 0.3874 and 0.3888 and 0.4649 and 0.5780
IMAGE: 368571
  Ratio ATFp2-Cy5 vs parental control-Cy3: Hadh (hydroxyacyl-Coenzyme A dehydrogenase): 0.3738 and 0.3752 and 0.5471 and 0.6286
IMAGE: 406272
  Ratio ATFp2-Cy5 vs parental control-Cy3: Crabp1 (cellular retinoic acid binding protein I): 0.3248 and 0.361 and 0.3150 and 0.3569
IMAGE: 516935
  Ratio ATFp2-Cy5 vs parental control-Cy3: RIKEN cDNA 2900002K07 gene: 0.3227 and 0.3239 and 0.2740 and 0.3014
IMAGE: 577544
  Ratio ATFp2-Cy5 vs parental control-Cy3: Ptk2 (PTK2 protein tyrosine kinase 2): 0.3803 and 0.3817 and 0.3913 and 0.4599
IMAGE: 616653
  Ratio ATFp2-Cy5 vs parental control-Cy3: Ifit1 (interferon-induced protein with tetratricopeptide repeats 1): 0.2354 and 0.2363 and 0.2637 and 0.3054
IMAGE: 619632
  Ratio ATFp2-Cy5 vs parental control-Cy3: ESTs: 0.4707 and 0.4724 and 0.3928 and 0.6046
IMAGE: 620800
  Ratio ATFp2-Cy5 vs parental control-Cy3: Scya12 (small inducible cytokine A12): 0.2911 and 0.2922 and 0.3318 and 0.4279
IMAGE: 621129
  Ratio ATFp2-Cy5 vs parental control-Cy3: ESTs: 0.4938 and 0.4955 and 0.3268 and 0.3091
IMAGE: 636228
  Ratio ATFp2-Cy5 vs parental control-Cy3: Casp6 (caspase 6): 0.3777 and 0.3791 and 0.4947 and 0.6368
IMAGE: 636695
  Ratio ATFp2-Cy5 vs parental control-Cy3: Igh-1 (immunoglobulin heavy chain 1 (serum IgG2a)): 0.3565 and 0.3578 and 0.4847 and 0.6503
IMAGE: 720190
  Ratio ATFp2-Cy5 vs parental control-Cy3: S100a9 (S100 calcium-binding protein A9 (calgranulin B)): 0.3486 and 0.3498 and 0.362 and 0.3547
IMAGE: 751642
  Ratio ATFp2-Cy5 vs parental control-Cy3: Jsp18 (ubiquitin specific protease 18): 0.3213 and 0.3225 and 0.2989 and 0.2958
IMAGE: 836124
  Ratio ATFp2-Cy5 vs parental control-Cy3: Plat (plasminogen activator, tissue): 0.4074 and 0.4089 and 0.4019 and 0.5488
IMAGE: 864447
  Ratio ATFp2-Cy5 vs parental control-Cy3: G0s2 (G0/G1 switch gene 2): 0.4421 and 0.4583 and 0.383 and 0.3949
IMAGE: 1022928
  Ratio ATFp2-Cy5 vs parental control-Cy3: Xlr (X-linked lymphocyte-regulated complex): 0.1598 and 0.1572 and 0.1540 and 0.1537
IMAGE: 1023899
  Ratio ATFp2-Cy5 vs parental control-Cy3: Lgals7 (lectin galactose binding, soluble 7): 0.4381 and 0.4397 and 0.4481 and 0.4781
IMAGE: 1037652
  Ratio ATFp2-Cy5 vs parental control-Cy3: Mus musculus, clone MGC: 19199 IMAGE: 4236882, mRNA, complete cds: 0.4768 and 0.4785 and 0.4402 and 0.4792
IMAGE: 1068714
  Ratio ATFp2-Cy5 vs parental control-Cy3: Isg15 (interferon-stimulated protein (15 kDa)): 0.321 and 0.4337 and 0.4643 and 0.5141
IMAGE: 1210036
  Ratio ATFp2-Cy5 vs parental control-Cy3: Ifit3 (interferon-induced protein with tetratricopeptide repeats 3): 0.4750 and 0.4768 and 0.3824 and 0.3361
IMAGE: 1278511
  Ratio ATFp2-Cy5 vs parental control-Cy3: Ensa (endosulfine alpha): 0.4501 and 0.4517 and 0.4544 and 0.4479
IMAGE: 1378935
  Ratio ATFp2-Cy5 vs parental control-Cy3: Myo5b (myosin Vb): 0.2748 and 0.2758 and 0.2551 and 0.2439
IMAGE: 1430217
  Ratio ATFp2-Cy5 vs parental control-Cy3: Mtap6 (microtubule-associated protein 6): 0.3697 and 0.3710 and 0.5261 and 0.7243
